Consider four substances from patent US10265395B2, “Adjuvant compositions and related methods” (priority 2015, dated 2019).

The subject of test [1] is BSA. The test is described as follows: ELISA seroconversion to BSA in mice, BSA/adjuvant stability, time 0 and 6 months (Example 4). The format is in vivo. Conditions: for Geometric Means: Time point 6 Months; for Normalized: Day 28/29, Table 18 (to BSA only GMT of the same storage temperature).
The subject of test [2] is BSA. Nature of the test: ELISA seroconversion to BSA in CF-1 mice, BSA/adjuvant stability at 12 months (Example 8). It counts as in vivo. Conditions: 12 Month; for Geometric Mean (ELISA to BSA): adjuvants at 4X, > 20 considered positive. (In general: An ELISA detects its analyte on a solid surface through an enzyme-linked reagent.)
[3] abbreviates: Time 0, Day 32, mice SC 50 ug BSA/0.1 mL on days 0 and 14, value of 10 used for no seroconversion.
The mark [4] stands for this setting: 6 Month, Day 28/29, S = stored stability sample, F = fresh, storage in the label.
Where [5] appears, read: Day 13, mice SC 50 ug BSA/0.1 mL.
The mark [6] stands for this setting: Day 28/29, mice SC 50 ug BSA/0.1 mL days 0 and 14.

Consider BSA/PBS, for which the “Incidence (# Mice Seroconverted/# Mice Treated)” value with BSA [1] (Time 0, Day 32) is 8/10. In the test on BSA [1] (setting [3]), the “Geometric Mean (ELISA to BSA)” value was determined as 290. The “Geometric Means” value with BSA [1] (Fresh) came to 98; in the test on BSA [1] (Stability Ambient - Storage (18-27° C.)) it was 243; in the test on BSA [1] (Stability Cold - Storage (2-7° C.)) it was 149.
F-BSA: the “Incidence (# Mice Seroconverted/# Mice Treated)” value in the test on BSA [1] (6 Month, Day 28/29) is 6/10. For the same substance, the “Geometric Mean (ELISA to BSA)” value in the test on BSA [1] (setting [4]) was 98; in the test with BSA [2] (setting [5]) it was 20; with BSA [2] (setting [6]) it was 149. In addition, the results for the Incidence in the test with BSA [2] (Day 13) and in the test on BSA [2] (Day 28/29) were 5/9 and 7/10, respectively.
For S-BSA/2-7° C., the “Incidence (# Mice Seroconverted/# Mice Treated)” value in the test with BSA [1] (6 Month, Day 28/29) was 8/10; in the test with BSA [1] (Time 0, Day 32), 8/10. Besides, in the test with BSA [1] (6 Month), the Normalized is listed as 1. The “Geometric Mean (ELISA to BSA)” value in the test with BSA [1] (setting [4]) was found to be 149; in the test on BSA [1] (setting [3]), 290; with BSA [2] (setting [5]) it was 15; in the test with BSA [2] (setting [6]), 86. For the same substance, in the test with BSA [1] (Time 0, Day 32), the “Normalized (Geomean BSA/Adj06 ÷ Geomean BSA/PBS)” value is 1. Moreover, the Incidence with BSA [2] (Day 13) is reported as 2/9; in the test on BSA [2] (Day 28/29), 5/10.
As to S-BSA/RT, the “Incidence (# Mice Seroconverted/# Mice Treated)” value with BSA [1] (6 Month, Day 28/29) is 8/10. Further, the Normalized with BSA [1] (6 Month) came to 1. In addition, the “Geometric Mean (ELISA to BSA)” value in the test on BSA [1] (setting [4]) is given as 243; with BSA [2] (setting [5]), 25; in the test on BSA [2] (setting [6]), 184. In addition, the results for the Incidence in the test on BSA [2] (Day 13) and in the test on BSA [2] (Day 28/29) were 5/10 and 7/10, respectively.
